Experimental data from patent US20090305995A1, “AGONISTS AND ANTAGONISTS OF THE SOMATOSTATIN RECEPTOR” (Novartis AG, priority 2004, published 2009).
≈ marks a conversion by molar mass, not a printed value. Where two headings read alike, the source gives them in different places.

Tests used:
[1] = high throughput solubility (HT-Solubility); type: physicochemical; conditions: for water solubility (in words): see FIG. 10
[2] = logP octanol by pH-metric titration (GLpKa instrument); type: physicochemical; conditions: read-out: log P/D logP octanol
Experimental: In order to have a real measure of log P values for highly polar compounds, respective values for compounds 1 to 3 (C-terminal L-β-homothreonine amides) and compounds 7 to 9 (C-terminal 4-amino-5-methyl-dihydro-fuan-2-ones) are measured by employing pH-metric titration technology using a GLpKa instrument (Box et al. 2003). The high polarity of these two mixed α/β^3-tetrapeptides can be controlled by N-terminal introduction of lipophilization tags. The conjugation with fatty acid analogs leads to compounds with druglike polarity (5, 6, 10, 11, 12, 13, 14, 15, 16, 17, 18 and 26).

[3] = high throughput permeability (HT-Permeability, log Pe); type: physicochemical; conditions: PAMPA, Pe in cm/s
[4] = biological target: T1, hsst4 receptor (Homo sapiens, UniProt P31391); test: radioligand-binding displacement assay ([125I]LTT-SRIF28), receptor expressed in CCL39 cells; conditions: for Kd: hsst4, [125I]LTT-SRIF28 displacement
T1 construct: expressed in transfected cells; host or cells: Chinese hamster lung fibroblast (CCL39) cells
T1 sequence (P31391 whole entry): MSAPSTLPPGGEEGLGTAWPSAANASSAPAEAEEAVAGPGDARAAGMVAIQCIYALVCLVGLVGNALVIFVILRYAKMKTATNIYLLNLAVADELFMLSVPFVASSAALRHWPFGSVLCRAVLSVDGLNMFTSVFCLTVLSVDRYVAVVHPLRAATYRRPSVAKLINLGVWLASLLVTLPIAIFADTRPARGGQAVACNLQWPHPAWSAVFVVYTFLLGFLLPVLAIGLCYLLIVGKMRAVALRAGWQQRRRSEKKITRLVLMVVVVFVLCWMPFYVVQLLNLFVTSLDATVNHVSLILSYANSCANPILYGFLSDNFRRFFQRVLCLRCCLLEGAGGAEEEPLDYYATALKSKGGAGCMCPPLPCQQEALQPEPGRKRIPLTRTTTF
Experimental: (§1) The generated peptides are tested for their affinity to bind to human SRIF receptors expressed in Chinese hamster lung fibroblast (CCL39) cells. This is achieved in radioligand-binding assays, a displacement experiment in which the concentration of a substance is measured which is necessary for the replacement of 50% of a specifically bound radioligand ([^125I]LTT-SRIF28). Specific binding is measured as the total binding of receptor-specific radioligand minus the amount of radioligand bound in presence of unmarked SRIF-14 (100 nM, nonspecific binding).

[5] = HT-logP o/w, high throughput assay based on artificial liquid membrane permeability; type: physicochemical
Procedure, shortened: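 Octanol/water partition coefficients measured in a high-throughput format based on permeability across an artificial liquid membrane.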

[6] = test system: human SRIF receptors; test: radioligand-binding displacement assay on the human SRIF receptor family (selectivity)
Experimental: as §1

[7] = pH 6.8, pH 6.8, read-out: HT-Permeability logPe pH 6.8 (converted)
[8] = pH 8, pH 8.0, read-out: HT-Permeability logPe pH 8.0 (converted)
[9] = pH 1, pH 1.0, read-out: HT-Solubility pH 1.0
[10] = pH 6.8, pH 6.8, read-out: HT-Solubility pH 6.8
[11] = pH 4, pH 4.0, read-out: HT-Permeability logPe pH 4.0 (converted)
[12] = octanol/water, read-out: HT LogP ohw
[13] = octanol/water; read-out: HT LogP ohw

water solubility (in words) [1] | logP [2] | Papp [3, 7] [×10⁻⁶ cm/s] | Papp [3, 8] [×10⁻⁶ cm/s] | solubility [1, 9] [µg/mL] | solubility [1, 10] [µg/mL] | Kd [4] [nM] | Papp [3, 11] [×10⁻⁶ cm/s] | logP [5, 12] | HT-Solubility pH 1.0 [1] [g 1-1] | HT-Solubility pH 6.8 [1] [g 1-1] | affinity to the receptors of the SRIF family (in words) [6] | selectivity amongst other hsst receptors (factor) ([6]; hsst4 versus other hsst receptors) | logP [5, 13] | HT LogP ohw ([5]; octanol/water) | binding affinity to hsst4 (in words) [4] | SMILES
highest solubility values | 3.1 | 6.31 | 2 |  |  |  |  |  |  |  |  |  |  |  |  | CCCCCN(C)C(=O)C[C@H](CCCCN)NC(=O)[C@@H](Cc1c[nH]c2ccccc12)N(C)C(=O)C[C@H](Cc1ccccc1)NC(=O)CC [Compound 64]
highest solubility values |  | 3.98 | 12.6 | 129 (≈ 200 µM) | 129 (≈ 200 µM) | 35 | 5.01 | 3.3 |  |  |  |  |  |  |  | CCCCCNC(=O)C[C@H](CCCCN)NC(=O)[C@@H](Cc1c[nH]c2ccccc12)N(C)C(=O)C[C@H](Cc1ccccc1)NC(=O)CC [Compound 70, Propionyl-(S)-β^3-HPhe-(R)—N-Me-Trp-(S)-β^3-HLys-pentyl-amide]
 |  |  |  | 78.4 (≈ 100 µM) | 15.7 (≈ 20 µM) | 6170 | 0.1 | 3.2 |  |  |  |  |  |  |  | C[C@@H](O)[C@@H](CC(N)=O)NC(=O)C[C@H](CCCCN)NC(=O)[C@@H](Cc1c[nH]c2ccccc12)NC(=O)C[C@H](Cc1ccccc1)NC(=O)C12CC3CC(CC(C3)C1)C2 [Compound 18, Adamantoyl-(S)-β^3-HPhe-(R)-Trp-(S)-β^3-HLys-(R), (R)—HThr-NH2]
 | 1.5 | 7.94 | 6.31 |  |  |  | 5.01 |  | 0.1041 | 0.1041 |  |  |  |  |  | CN(C(=O)C[C@@H](N)Cc1ccccc1)[C@H](Cc1c[nH]c2ccccc12)C(=O)N[C@@H](CCCCN)CC(N)=O [Compound 72, (S)-β^3-HPhe-(R)—N-Me-Trp-(S)-β^3-HLys-NH2]
highest solubility values |  | 1.58 | 3.98 | 129 (≈ 200 µM) | 129 (≈ 200 µM) | 7 | 3.16 | 3.4 |  |  |  |  |  |  |  | CCCCCN(C)C(=O)C[C@H](CCCCN)NC(=O)[C@@H](Cc1c[nH]c2ccccc12)NC(=O)C[C@H](Cc1ccccc1)NC(=O)CC [Compound 48]
medium to good |  |  | 25.1 | 124 (≈ 200 µM) |  | 10 | 6.31 | 3.3 |  | 0.0309 |  |  |  |  |  | CCCCCNC(=O)C[C@H](CCCCN)NC(=O)[C@@H](Cc1c[nH]c2ccccc12)NC(=O)C[C@H](Cc1ccccc1)NC(C)=O [Compound 44]
 | 1 | 3.98 | 3.16 | 101 (≈ 200 µM) | 50.7 (≈ 100 µM) | 1510 | 1 |  |  |  | only very low affinity |  |  |  |  | NCCCC[C@@H](CC(N)=O)NC(=O)[C@@H](Cc1c[nH]c2ccccc12)NC(=O)C[C@@H](N)Cc1ccccc1 [Compound 59, (S)-β^3-HPhe-(R)-Trp-(S)-β^3-HLys-NH2]
medium to good |  | 1.58 | 1 | 121 (≈ 200 µM) | 121 (≈ 200 µM) | 16 | 6.31 | 3.1 |  |  |  |  |  |  |  | CCCCNC(=O)C[C@H](CCCCN)NC(=O)[C@@H](Cc1c[nH]c2ccccc12)NC(=O)C[C@H](Cc1ccccc1)NC(C)=O [Compound 52, Ace-(S)-β^3-HPhe-(R)-Trp-(S)-β^3-HLys-butyl-amide]
highest solubility values | 2.8 |  |  |  |  |  |  |  | 0.1294 | 0.1294 |  |  |  | 3.7 |  | CCCCCN(C)C(=O)C[C@H](CCCCN)NC(=O)[C@@H](Cc1c[nH]c2ccccc12)NC(=O)C[C@H](Cc1ccccc1)NC(=O)CC [Compound 49, Propionyl-(S)-β^3-HPhe-(R)-Trp-(S)-β^3-HLys-methyl-pentyl-amide]
 |  |  |  | 13.2 (≈ 20 µM) | 13.2 (≈ 20 µM) | 708 to 2950 | 0.1 | 3.3 |  |  |  |  |  |  |  | CC(=O)N[C@H](CC(=O)N[C@H](Cc1cn(C)c2ccccc12)C(=O)N[C@@H](CCCCN)CC(=O)N[C@@H]1CC(=O)O[C@@H]1C)Cc1ccccc1 [Compound 21, Ac—(S)-β^3-HPhe-(R)-1-Me-Trp-(S)-β^3-HLys-(R)-4-amino-(R)-5-methyl-dihydro-furan-2-one]
 |  |  |  | 129 (≈ 200 µM) | 129 (≈ 200 µM) |  | 1 | 3.3 |  |  |  |  |  |  | lower binding affinities | CCC(=O)N(C)[C@H](CC(=O)N[C@H](Cc1c[nH]c2ccccc12)C(=O)N[C@@H](CCCCN)CC(=O)NC1CCCC1)Cc1ccccc1 [Compound 46, Propionyl-N-Me-(S)-β^3-HPhe-(R)-Trp-(S)-β^3-HLys-cyclopentyl-amide]
 | 0.4 |  | 2 |  |  |  |  |  |  |  |  |  | 3.4 |  |  | CC(=O)N[C@H](CC(=O)N[C@H](Cc1c[nH]c2ccccc12)C(=O)N[C@@H](CCCCN)CC(=O)N[C@@H]1CC(=O)O[C@@H]1C)Cc1ccccc1 [Compound 8]
 | 0.4 |  |  |  |  |  |  |  | 0.0133 | 0.0133 |  |  |  |  |  | CC(=O)N[C@H](CC(=O)N[C@H](Cc1c[nH]c2ccccc12)C(=O)N[C@@H](CCCCN)CC(=O)N[C@H](CC(N)=O)[C@@H](C)O)Cc1ccccc1 [Compound 3]
highest solubility values |  | 2.51 | 5.01 | 135 (≈ 200 µM) | 135 (≈ 200 µM) | 57 | 12.6 | 4.1 |  |  |  |  |  |  |  | CCCCCCN(C)C(=O)C[C@H](CCCCN)NC(=O)[C@@H](Cc1c[nH]c2ccccc12)N(C)C(=O)C[C@H](Cc1ccccc1)NC(=O)CC [Compound 65, Propionyl-(S)-β^3-HPhe-(R)—N-Me-Trp-(S)-β^3-HLys-methyl-hexyl-amide]

SMILES | water solubility (in words) [1] | logP [2] | Papp [3, 7] [×10⁻⁶ cm/s] | Papp [3, 8] [×10⁻⁶ cm/s] | solubility [1, 9] [µg/mL] | solubility [1, 10] [µg/mL] | Kd [4] [nM] | Papp [3, 11] [×10⁻⁶ cm/s] | logP [5, 12] | HT-Solubility pH 1.0 [1] [g 1-1] | HT-Solubility pH 6.8 [1] [g 1-1] | affinity to the receptors of the SRIF family (in words) [6] | selectivity amongst other hsst receptors (factor) ([6]; hsst4 versus other hsst receptors) | logP [5, 13] | HT LogP ohw ([5]; octanol/water) | binding affinity to hsst4 (in words) [4]
CCCCCN(C)C(=O)C[C@H](CCCCN)NC(=O)[C@@H](Cc1c[nH]c2ccccc12)N(Cc1ccccc1)C(=O)C[C@H](Cc1ccccc1)NC(=O)CC [Compound 67] | does not allow for good water solubilities |  |  |  |  |  |  |  |  |  |  |  | 100 | 4.4 |  | 
